Where a name gives a salt, the structure may show the parent alone.
How the values were obtained:
[1] = target: T1, gastrointestinal H^+ K^+ ATPase (Sus scrofa, UniProt P19156); assay: K+-stimulated ATPase activity in lyophilized gastric vesicles (H/K-ATPase); assay type: biochemical; conditions: lyophilized pig gastric vesicles, 37° C.; for IC50: K+-stimulated ATPase activity, pH 7.0, 30 minutes
T1 construct: Lyophilized gastric vesicles were prepared from pig fundic mucosa; from tissue; host or cells: pig fundic mucosa (lyophilized gastric vesicles)
Method: The effects of a single high concentration (100 μM) of a compound of structure (I) on K-stimulated ATPase activity in lyophilized gastric vesicles was determined. Preferred compounds of structure (I) were also tested over a range of concentrations to determine IC50 values. Lyophilized gastric vesicles were prepared from pig fundic mucosa after the method of Keeling et. al. (Biochem. Pharmacol., 34, 2967, 1985). K^+ -stimulated ATPase activity was determined at 37° C. in the presence of the following : 10 mM Pipes/Tris buffer pH 7.0, 2 mM MgSO4, 1 mM KCl, 2 mM Na2 ATP and 3-6 μg protein/ml lyophilized gastric vesicles. After incubation for 30 minutes, the inorganic phosphate hydrolyzed from ATP was determined by the method of Yoda and Hokin (Biochem. Biophys. Res. Commun. 40, 880, 1970). Compounds of structure (I) were dissolved in dimethylsulphoxide which up to the highest concentration used had no effect on K^+ -stimulated ATPase activity. The effect of the highest concentration of each compound of structure (I) on the recovery of a standard amount of inorganic phosphate was also determined.

[2] = system: pentagastrin stimulated gastric acid secretion; assay: Rat lumen perfused stomach (pentagastrin stimulated gastric acid secretion); assay type: in vivo; conditions: iv, 10 μmole/kg
From the text: B. Rat Lumen Perfused Stomach ([…] stimulated […] secretion) Using a modification of the procedure described by Ghosh & Schild (Br. J. Pharmacology, 13, 54, 1958), the compounds of the following examples were found on i.v. administration at a concentration of 10 μmole/kg to cause an inhibition of pentagastrin stimulated gastric acid secretion as follows: […]

T1 sequence (P19156 2-1034 limits assumed): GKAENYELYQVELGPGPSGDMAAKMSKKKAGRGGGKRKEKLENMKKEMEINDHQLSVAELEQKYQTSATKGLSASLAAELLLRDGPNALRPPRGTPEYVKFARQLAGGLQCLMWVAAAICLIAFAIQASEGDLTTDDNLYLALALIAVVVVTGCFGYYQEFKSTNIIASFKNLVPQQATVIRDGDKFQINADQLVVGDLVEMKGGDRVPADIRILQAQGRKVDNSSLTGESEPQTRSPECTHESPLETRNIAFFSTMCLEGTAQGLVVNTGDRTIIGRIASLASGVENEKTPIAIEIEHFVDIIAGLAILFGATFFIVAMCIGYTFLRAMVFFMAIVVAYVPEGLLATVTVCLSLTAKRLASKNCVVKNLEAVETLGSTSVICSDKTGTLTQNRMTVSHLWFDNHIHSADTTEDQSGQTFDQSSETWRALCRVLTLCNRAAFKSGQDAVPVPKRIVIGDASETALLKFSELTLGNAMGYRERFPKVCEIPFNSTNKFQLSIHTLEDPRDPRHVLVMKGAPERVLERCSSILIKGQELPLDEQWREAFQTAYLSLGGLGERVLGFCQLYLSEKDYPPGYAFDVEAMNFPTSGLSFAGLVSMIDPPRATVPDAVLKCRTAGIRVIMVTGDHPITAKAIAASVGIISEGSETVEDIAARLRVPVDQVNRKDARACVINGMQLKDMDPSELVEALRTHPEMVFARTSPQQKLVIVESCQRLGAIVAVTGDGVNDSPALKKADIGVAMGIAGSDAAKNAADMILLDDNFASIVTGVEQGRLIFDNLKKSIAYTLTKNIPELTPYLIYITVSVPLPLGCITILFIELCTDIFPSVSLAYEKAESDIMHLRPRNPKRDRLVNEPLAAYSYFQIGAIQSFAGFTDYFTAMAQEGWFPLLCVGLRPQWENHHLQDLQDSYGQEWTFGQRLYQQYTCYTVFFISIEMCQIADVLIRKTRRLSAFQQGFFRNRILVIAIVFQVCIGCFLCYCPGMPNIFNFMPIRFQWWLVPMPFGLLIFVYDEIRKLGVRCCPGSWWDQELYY
T1 sequence (P18434 whole entry partner): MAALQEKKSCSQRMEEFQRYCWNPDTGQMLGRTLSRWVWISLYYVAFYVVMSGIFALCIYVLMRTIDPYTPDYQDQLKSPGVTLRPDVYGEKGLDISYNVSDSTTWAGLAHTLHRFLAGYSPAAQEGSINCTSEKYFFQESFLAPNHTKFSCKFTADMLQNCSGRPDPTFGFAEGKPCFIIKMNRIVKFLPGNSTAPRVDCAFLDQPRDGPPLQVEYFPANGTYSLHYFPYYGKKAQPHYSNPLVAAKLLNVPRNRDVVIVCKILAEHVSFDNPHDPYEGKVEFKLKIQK

Structure (SMILES) | IC50 [1] | % inhibition of K+-stimulated ATPase activity (printed in IC50 column as % @ 100) ([1]; @ 100 (μM), pH 7.0) | inhibition in vivo at 10 µmol/kg [2]
CCCC(=O)c1cnc2c(CO)cccc2c1Nc1ccc(O)cc1C [Example 3, 3-butyryl-4-(4-hydroxy-2-methylphenylamino)-8-(hydroxymethyl)quinoline hydrochloride] | 180 nM | – | 88%
Cc1cc(F)ccc1Nc1c(C(=O)C(C)C)cnc2c(CO)cccc12 [Example 8, 3-isobutyryl-4-(4-fluoro-2-methylphenylamino)-8-(hydroxymethyl)quinoline] | 2100 nM | – | 76%
CCCC(=O)c1cnc2c(CO)cccc2c1Nc1ccc(F)cc1C [Example 9, 3-butyryl-4-(4-fluoro-2-methylphenylamino)-8-(hydroxymethyl)quinoline] | 2200 nM | – | 55%
CCCC(=O)c1cnc2c(OCCOCCOCCO)cccc2c1Nc1ccccc1C [Example 12, 3-butyryl-4-(2-methylphenylamino)-8-(2-(2-(2-hydroxyethoxy)ethoxy)ethoxy)quinoline] | 2400 nM | – | 57%
CCCC(=O)c1cnc2c(OCCOCCO)cccc2c1Nc1ccc(F)cc1C [Example 13, 3-butyryl-4-(4-fluoro-2-methylphenylamino)-8-(2-(2-hydroxyethoxy)ethoxy)quinoline] | 4000 nM | – | 49%
CCCC(=O)c1cnc2c(OCCO)cccc2c1Nc1ccc(F)cc1C [Example 14, 3-butyryl-4-(4-fluoro-2-methylphenylamino)-8-(2-hydroxyethoxy)quinoline] | 2700 nM | – | 79%
Cc1cc(O)ccc1Nc1c(C(=O)C(C)C)cnc2c(CO)cccc12 [Example 16, 3-isobutyryl-4-(4-hydroxy-2-methylphenylamino)-8-(hydroxymethyl)quinoline hydrochloride] | 40 nM | – | 91%

Further lines, with some results ahead:

IC50 [1] | % inhibition of K+-stimulated ATPase activity (printed in IC50 column as % @ 100) ([1]; @ 100 (μM), pH 7.0) | Structure (SMILES) | inhibition in vivo at 10 µmol/kg [2]
840 nM | – | CCCC(=O)c1cnc2c(CO)cccc2c1Nc1ccccc1C [Example 1, 3-butyryl-4-(2-methylphenylamino)-8-(hydroxymethyl)quinoline] | 61%
2500 nM | – | CCCC(=O)c1cnc2c(OCCOC)cccc2c1Nc1ccccc1C [Example 2, 3-butyryl-4-(2-methylphenylamino)-8-(2-methoxyethoxy)quinoline] | 67%
360 nM | – | CCCC(=O)c1cnc2c(C(C)O)cccc2c1Nc1ccccc1C (stereo not shown) [Example 4, 3-butyryl-4-(2-methylphenylamino)-8-(1-hydroxyethyl)quinoline] | 63%
4400 nM | – | CCCC(=O)c1cnc2ccc(CO)cc2c1Nc1ccccc1C [Example 5, 3-butyryl-4-(2-methylphenylamino)-6-hydroxymethylquinoline] | 46%
– | 44% | CCCC(=O)c1cnc2cc(CO)ccc2c1Nc1ccccc1C [Example 6, 3-butyryl-4-(2-methylphenylamino)-7-hydroxymethylquinoline] | –
820 nM | – | Cc1ccccc1Nc1c(C(=O)C(C)C)cnc2c(CO)cccc12 [Example 7, 3-isobutyryl-4-(2-methylphenylamino)-8-(hydroxymethyl)quinoline] | 74%
2400 nM | – | CCCC(=O)c1cnc2c(OCCO)cccc2c1Nc1ccccc1C [Example 10, 3-butyryl-4-(2-methylphenylamino)-8-(2-hydroxyethoxy)quinoline] | 68%
2100 nM | – | CCCC(=O)c1cnc2c(OCCOCCO)cccc2c1Nc1ccccc1C [Example 11, 3-butyryl-4-(2-methylphenylamino)-8-(2-(2-hydroxyethoxy)ethoxy)quinoline] | 77%
60 nM | – | CCCC(=O)c1cnc2c(C(C)O)cccc2c1Nc1ccc(O)cc1C (stereo not shown) [Example 15, 3-butyryl-4-(4-hydroxy-2-methylphenylamino)-8-(1-hydroxyethyl)quinoline] | 70%
